{
  "source": "paper PMC12657724",
  "about": "“Structures of a lipin/Pah phosphatidic acid phosphatase in distinct catalytic states reveal a signature motif for substrate recognition” (The Journal of Biological Chemistry, 2025)",
  "molecular_target": "T1, Tt Pah2 (WT, residues 1-321) (Tetrahymena thermophila, UniProt I7MFJ3)",
  "T1 construct": "gene TTHERM_00215970; residues 1-321, codon-optimised, N-terminal His-tag (pET28) kept, E. coli BL21(DE3) RIPL",
  "T1 sequence (I7MFJ3 1-321)": "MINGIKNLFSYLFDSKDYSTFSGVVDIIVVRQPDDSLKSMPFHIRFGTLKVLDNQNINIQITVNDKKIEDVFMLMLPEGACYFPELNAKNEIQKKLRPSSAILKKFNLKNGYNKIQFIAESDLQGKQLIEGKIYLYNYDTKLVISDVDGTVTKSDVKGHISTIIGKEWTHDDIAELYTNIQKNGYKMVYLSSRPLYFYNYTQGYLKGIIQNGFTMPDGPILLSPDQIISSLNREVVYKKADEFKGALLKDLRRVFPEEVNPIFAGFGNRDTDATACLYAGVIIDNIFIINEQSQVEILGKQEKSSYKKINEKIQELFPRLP",
  "assay": "absorbance at […] nm (p-nitrophenol release)",
  "type": "biochemical",
  "settings": "Mg2+, pH 8, ambient temperature, 56 μM enzyme; very slow turnover",
  "data": [
    {"smiles": "O=[N+]([O-])c1ccc(OP(=O)(O)O)cc1", "note": "[pNPP]", "values": [
      {"measurement": "absorbance at 405 nm (p-nitrophenol release)", "value": "we were able to observe detectable pNPP hydrolysis, albeit at a low rate"}
    ]}
  ]
}
